From article PMC5426640, “A novel multifunctional peptide oligomer of bacitracin with possible bioindustrial and therapeutic applications from a Korean food-source Bacillus strain” (PLoS ONE, 2017)
Where a SMILES comes first, the peptide text is derived from it. Bridges are numbered along the chain shown (N, C = ends). [ ]: non-standard residue; d: D form. The star is where a group is joined. Ileψ(thiazoline)Cys = CC[C@H](C)[C@H](N)C1=N[C@H](C(=O)*)CS1; dOrn = NCCC[C@@H](N)C(=O)O

Tests used:
[1] = test system: Micrococcus luteus ATCC 9341; test: Thermostability, residual antimicrobial activity; format: physicochemical; conditions: residual antimicrobial activity vs Micrococcus luteus ATCC 9341, mean ± SD, n = 3
Experimental: (§1) After heat treatment (30–121°C, 10–60 min), the samples were tested for residual antimicrobial activity against indicator strain Micrococcus luteus ATCC 9341. Effects of pH on antimicrobial activity were estimated by varying the pH levels. Samples were diluted in the following buffers: citrate with Na2HPO4 (pH 3.0–7.0), Tris-HCl (pH 7.0–9.0), and NaHCO3 with NaOH (pH 10.0–11.0). After incubation for 1 h at room temperature, pH in the samples was adjusted to 7.0, and the samples were tested for antimicrobial activity against the indicator strain. The AMP was digested with various proteolytic enzymes at a final concentration of 1 mg/mL: […] (50 mM Tris-HCl, pH 7.5), protease K (50 mM Tris-HCl, pH 7.5), α-chymotrypsin (50 mM Tris-HCl, pH 7.5), or trypsin (50 mM Tris-HCl, pH 8.0). After 1-h incubation at room temperature, the enzymes were boiled for 2 min for inactivation.

NF-κB (p65) = test: Western blot of NF-κB translocation into the nucleus in LPS-stimulated RAW 264.7 cells; format: cell-based, mouse; conditions: CSP32 1 h prior to LPS 1 μg/mL
Experimental: (§2) Macrophages were incubated with or without LPS in the presence or absence of the AMPs. Cells were harvested, washed twice with ice-cold Tris-HCl-buffered saline (TBS), and resuspended in lysis buffer [100 mM Tris-HCl, 5 mM EDTA, 50 mM NaCl, 50 mM β- glycerophosphate, 50 mM NaF (sodium fluoride), 0.5% NP-40, 1% sodium deoxycholate, 0.1 mM sodium orthovanadate, and 1% phenylmethylsulfonyl fluoride (PMSF)]. The cytosolic fraction was obtained from the supernatant after […] centrifugation at 4°C for 20 min. Samples (20 μg in terms of protein) were separated by sodium dodecyl sulfate-polyacrylamide gel electrophoresis (SDS-PAGE) in a 10% gel and transferred to polyvinylidene difluoride (PVDF) membranes. The membranes were blocked with 5% nonfat milk in TBS with Tween 20 (0.1%) for 2 h and then incubated with primary antibodies specific for ERK, phospho-ERK, JNK, phospho-JNK, p38 MAPK, phospho-p38 MAPK (all them from Cell Signaling Technology), NF-κB, IκB, and phospho-IκB (1:1000; Santa Cruz Biotechnology). […] After three washes with TBS–Tween 20, the membrane was hybridized with an HRP-conjugated secondary antibody for 1 h. […] The immunoreactive proteins were detected by means of a LAS-3000 Luminescent image analyzer (Fuji Photo Film Co., Ltd., Tokyo, Japan).

iNOS = test: Western blot of protein expression in LPS-stimulated RAW 264.7 cells; format: cell-based, mouse; conditions: 10, 50, or 100 μg/mL, LPS 1 μg/mL, 24 h
Experimental: as §2

COX-2 = test: as above; format: cell-based, mouse; conditions: 10, 50, or 100 μg/mL, LPS 1 μg/mL, 24 h
Experimental: as §2

[2] = test system: NO production in LPS-stimulated RAW 264.7 cells; test: LPS-induced NO production, Griess reaction; format: cell-based, mouse; conditions: 10, 50, or 100 μg/mL; LPS 1 μg/mL, 24 h; Griess reagent
Experimental: NO levels in the culture supernatants were measured by the Griess reaction. Cells (10^6 cells/mL) were seeded in 6-well plates and pretreated with the indicated concentrations of AMP for 30 min before stimulation with 1 μg/mL LPS for 24 h. The sample supernatants were mixed with an equal volume of the Griess reagent (1% sulfanilamide in 5% phosphoric acid and 0.1% naphthyl ethylene diamine dihydrochloride), and then incubated at room temperature for 10 min. The absorbance was measured at 550 nm on a microplate reader (Thermo Fisher Co.). The nitrite concentration was determined using a dilution of sodium nitrite as a standard.

IκBα = test: Western blot of IκBα phosphorylation in LPS-stimulated RAW 264.7 cells; format: cell-based, mouse; conditions: CSP32 1 h prior to LPS 1 μg/mL
Experimental: as §2

IL-1β = test: ELISA of cytokine production in LPS-stimulated RAW 264.7 cells; format: cell-based, mouse; conditions: 10–100 μg/mL before LPS 1 μg/mL for 24 h; ELISA of supernatant
Experimental: (§3) The concentration of nitrite in the supernatant was calculated using a sodium nitrite standard curve. The supernatant was analyzed for TNF-α, IL-1β, and IL-6 by ELISAs using commercial kits (BD Biosciences) according to the manufacturer’s instructions.

IL-6 = test: as above; format: cell-based, mouse; conditions: 10–100 μg/mL before LPS 1 μg/mL for 24 h; ELISA of supernatant
Experimental: as §3

TNF-α = test: as above; format: cell-based, mouse; conditions: 10–100 μg/mL before LPS 1 μg/mL for 24 h; ELISA of supernatant
Experimental: as §3

ERK = test: Western blot of LPS-induced MAPK phosphorylation in RAW 264.7 cells; format: cell-based, mouse; conditions: 10–100 μg/mL, LPS 1 μg/mL
Experimental: (§4) Macrophages were incubated with or without LPS in the presence or absence of the AMPs. Cells were harvested, washed twice with ice-cold Tris-HCl-buffered saline (TBS), and resuspended in lysis buffer [100 mM Tris-HCl, 5 mM EDTA, 50 mM NaCl, 50 mM β- glycerophosphate, 50 mM NaF (sodium fluoride), 0.5% NP-40, 1% sodium deoxycholate, 0.1 mM sodium orthovanadate, and 1% phenylmethylsulfonyl fluoride (PMSF)]. The cytosolic fraction was obtained from the supernatant after […] centrifugation at 4°C for 20 min. Samples (20 μg in terms of protein) were separated by sodium dodecyl sulfate-polyacrylamide gel electrophoresis (SDS-PAGE) in a 10% gel and transferred to polyvinylidene difluoride (PVDF) membranes. The membranes were blocked with 5% nonfat milk in TBS with Tween 20 (0.1%) for 2 h and then incubated with primary antibodies specific for ERK, phospho-ERK, JNK, phospho-JNK, p38 MAPK, phospho-p38 MAPK (all them from Cell Signaling Technology), NF-κB, IκB, and phospho-IκB (1:1000; Santa Cruz Biotechnology). […] After three washes with TBS–Tween 20, the membrane was hybridized with an HRP-conjugated secondary antibody for 1 h. The membranes were washed three times for 10 min and developed with the ECL Western Blotting Detection System (GE Healthcare, Incheon, Republic of Korea,). The immunoreactive proteins were detected by means of a LAS-3000 Luminescent image analyzer (Fuji Photo Film Co., Ltd., Tokyo, Japan).

p38 MAPK = test: as above; format: cell-based, mouse; conditions: 10–100 μg/mL, LPS 1 μg/mL
Experimental: as §4

JNK = test: as above; format: cell-based, mouse; conditions: 10–100 μg/mL, LPS 1 μg/mL
Experimental: as §4

iNOS mRNA = test: RT-PCR of mRNA expression in LPS-stimulated RAW 264.7 cells; format: cell-based, mouse; conditions: 10, 50, or 100 μg/mL, LPS 2–12 h, GAPDH control
Experimental: Total RNA from the AMP-treated cells was prepared using the RNAiso Reagent (Takara) and was stored at −80°C until use. For the detection of iNOS, COX-2, TNF-α, IL-Iβ, and IL-6, total RNA was extracted after stimulation and treatment. The mRNA expression levels of iNOS, COX-2, TNF-α, IL-Iβ, and IL-6 in the treated cells were compared to the expression levels in control cells. One microgram of RNA was reverse-transcribed into cDNA and used as a template for PCR amplification. PCR was performed on a DNA Gene Cycler, under the following conditions: 40 cycles of denaturation at 94°C for 30 s, annealing at 58°C for 30 s, and primer extension at 72°C for 40 s. PCR products were analyzed on 1% agarose gels, and bands were visualized by ethidium bromide staining.

[3] = test system: Micrococcus luteus ATCC 9341; test: pH stability, residual antimicrobial activity; format: physicochemical; conditions: 1 h at room temperature, residual antimicrobial activity vs indicator strain, n = 3
Experimental: as §1

CC[C@H](C)[C@H](N)C1=N[C@H](C(=O)N[C@@H](CC(C)C)C(=O)N[C@H](CCC(=O)O)C(=O)N[C@H](C(=O)N[C@H]2CCCCNC(=O)[C@H](CC(N)=O)NC(=O)[C@@H](CC(=O)O)NC(=O)[C@H](Cc3c[nH]cn3)NC(=O)[C@@H](Cc3ccccc3)NC(=O)[C@H]([C@@H](C)CC)NC(=O)[C@@H](CCCN)NC2=O)[C@@H](C)CC)CS1 [CSP32] ({Ileψ(thiazoline)Cys}-L[dE]IK[dOrn]I[dF]H[dD]N; lactam 4-C; N-terminus assumed)
Residual activity (%) ([1]; heat treatment 30°C, 10 min): 100% | Residual activity (%) ([1]; heat treatment 30°C, 30 min, SD): 100±0.28% | Residual activity (%) ([1]; heat treatment 30°C, 60 min, SD): 100±0.34% | Residual activity (%) ([1]; heat treatment 50°C, 10 min, SD): 100±0.94% | Residual activity (%) ([1]; heat treatment 50°C, 30 min, SD): 98.40±0.39% | Residual activity (%) ([1]; heat treatment 50°C, 60 min, SD): 98.07±0.36% | Residual activity (%) ([1]; heat treatment 70°C, 10 min, SD): 98.07±0.41% | Residual activity (%) ([1]; heat treatment 70°C, 30 min, SD): 98.00±0.41% | Residual activity (%) ([1]; heat treatment 70°C, 60 min, SD): 98.07±0.39% | Residual activity (%) ([1]; heat treatment 90°C, 10 min, SD): 97.73±1.04% | Residual activity (%) ([1]; heat treatment 121°C, 15 min, SD): 65.40±0.17% | Effect on LPS-induced changes in the levels of p65 in the nucleus and cytoplasm (NF-κB (p65)): attenuated | Effect on LPS-induced iNOS protein expression (iNOS): significantly attenuated this induction in a dose-dependent manner | Effect on LPS-induced COX-2 protein expression (COX-2): significantly attenuated this induction in a dose-dependent manner | Effect on LPS-induced NO production [2]: attenuated the LPS-induced production of NO to a statistically significant extent | Effect on LPS-increased level of p-IκBα (IκBα): attenuated by CSP32 treatment (dose dependently) | Effect on LPS-induced IL-1β release (IL-1β): significantly attenuated | Effect on LPS-induced IL-6 release (IL-6): significantly attenuated | Effect on LPS-induced TNF-α release (TNF-α): significantly attenuated | Effect on LPS-induced phosphorylation of ERK (ERK): Phosphorylation decreased in a dose-dependent manner | Effect on LPS-induced phosphorylation of p38 MAPK (p38 MAPK): Phosphorylation decreased in a dose-dependent manner | Effect on LPS-induced phosphorylation of JNK (JNK): Phosphorylation decreased in a dose-dependent manner | Effect on LPS-induced iNOS mRNA expression (iNOS mRNA): significantly attenuated iNOS and COX-2 mRNA upregulation in a dose-dependent manner | Residual activity (%) ([3]; pH 2, then adjusted to pH 7.0, mean ± SD, SD): 61.33±1.04% | Residual activity (%) ([3]; pH 3, citrate with Na2HPO4, then adjusted to pH 7.0, mean ± SD, SD): 63.00±1.04% | Residual activity (%) ([3]; pH 4, citrate with Na2HPO4, then adjusted to pH 7.0, mean ± SD, SD): 89.60±3.44% | Residual activity (%) ([3]; pH 6, citrate with Na2HPO4, then adjusted to pH 7.0, mean ± SD, SD): 100±0.50% | Residual activity (%) ([3]; pH 7): 100% | Residual activity (%) ([3]; pH 8, Tris-HCl, then adjusted to pH 7.0, mean ± SD, SD): 100±0.20% | Residual activity (%) ([3]; pH 9, Tris-HCl, then adjusted to pH 7.0, mean ± SD, SD): 100±1.15% | Residual activity (%) ([3]; pH 10, NaHCO3 with NaOH, then adjusted to pH 7.0, mean ± SD, SD): 98±3.38% | Residual activity (%) ([3]; pH 11, NaHCO3 with NaOH, then adjusted to pH 7.0, mean ± SD, SD): 91.33±0.06% | Residual activity (%) ([3]; pH 12, then adjusted to pH 7.0, mean ± SD, SD): 91.77±0.06%
